Structures are written as SMILES. Structures can show the parent of a compound that is named as a salt. Marks after values point to notes of the source that are not given here.

Series [1] is described as follows: Pharmacokinetics of plasma AαC and its metabolites after oral gavage of AαC. Type of series: in vivo, mice (C57BL/6 background; WT, LCN, IECN). The note with it: for AUC 0-24 h in plasma, fold greater in LCN mice than in WT mice / Cmax in plasma, fold greater in LCN mice than in WT mice / clearance rate, fold lower in LCN mice than in WT mice: for AαC also vs IECN; for CL/F / AUC(0-t) / Cmax / half-life / Tmax / AUC0-24h / t1/2 / AUC0-6h: plasma.

For series [2], the system named is Liver microsomal P450. The series is described as follows: Liver microsomal P450 oxidation. Type of series: in vitro ADME, mouse. The note with it: for P450 Oxidation: substrate 100 μM (AαC, PhIP, MeIQx), 10 μM (MROD), mean and SD, n ≥3, N.D. = not detected; for levels of metabolism, fold greater than AαC: 100 µM substrate. In general terms: Liver microsomes are vesicles of endoplasmic reticulum, rich in cytochrome P450 enzymes.

Series [3] deals with Liver microsomal P450. The series is described as follows: Liver microsomal P450 oxidation. Type of series: in vitro ADME. The note with it: Human liver microsome (H112); substrate 100 μM (AαC, PhIP, MeIQx), 10 μM (MROD).
In another series the target is Xanthine Dehydrogenase (Mus musculus, UniProt Q00519). The series is described as follows: Xanthine dehydrogenase assay, liver cytosol. Type of series: in vitro ADME. The note with it: WT and LCN liver cytosol.
Another series deals with Aldehyde Oxidase. The series is described as follows: Aldehyde oxidase assay, liver cytosol. The note with it: WT and LCN liver cytosol.
The subject of series [4] is Flavin monooxygenase (FMO). The series is described as follows: Microsomal flavin monooxygenase. The note with it: WT and LCN liver microsomes.
The test system of series [5] is DNA. The note with it: liver, kidney, colon, and mammary gland of female Cyp1a2-null mice; cited from earlier work.
Series [6] concerns DNA. The note with it: cited from earlier work.
The test system of the next series is P450 1A2. The note with it: human hepatocytes in primary culture pretreated with furafylline; cited from earlier work.
Where [7] appears, read: IECN mice, AαC 13.6 mg/kg oral gavage, mean ± S.D. n=5.
The mark [8] stands for this setting: LCN mice, AαC 1.36 mg/kg oral gavage, mean ± S.D. n=5.
[9] abbreviates: LCN mice, AαC 13.6 mg/kg oral gavage, mean ± S.D. n=5.
Where [10] appears, read: WT mice, AαC 1.36 mg/kg oral gavage, mean ± S.D. n=5.
[11] abbreviates: WT mice, AαC 13.6 mg/kg oral gavage, mean ± S.D. n=5.

Xanthine Dehydrogenase, sequence (Q00519 whole entry): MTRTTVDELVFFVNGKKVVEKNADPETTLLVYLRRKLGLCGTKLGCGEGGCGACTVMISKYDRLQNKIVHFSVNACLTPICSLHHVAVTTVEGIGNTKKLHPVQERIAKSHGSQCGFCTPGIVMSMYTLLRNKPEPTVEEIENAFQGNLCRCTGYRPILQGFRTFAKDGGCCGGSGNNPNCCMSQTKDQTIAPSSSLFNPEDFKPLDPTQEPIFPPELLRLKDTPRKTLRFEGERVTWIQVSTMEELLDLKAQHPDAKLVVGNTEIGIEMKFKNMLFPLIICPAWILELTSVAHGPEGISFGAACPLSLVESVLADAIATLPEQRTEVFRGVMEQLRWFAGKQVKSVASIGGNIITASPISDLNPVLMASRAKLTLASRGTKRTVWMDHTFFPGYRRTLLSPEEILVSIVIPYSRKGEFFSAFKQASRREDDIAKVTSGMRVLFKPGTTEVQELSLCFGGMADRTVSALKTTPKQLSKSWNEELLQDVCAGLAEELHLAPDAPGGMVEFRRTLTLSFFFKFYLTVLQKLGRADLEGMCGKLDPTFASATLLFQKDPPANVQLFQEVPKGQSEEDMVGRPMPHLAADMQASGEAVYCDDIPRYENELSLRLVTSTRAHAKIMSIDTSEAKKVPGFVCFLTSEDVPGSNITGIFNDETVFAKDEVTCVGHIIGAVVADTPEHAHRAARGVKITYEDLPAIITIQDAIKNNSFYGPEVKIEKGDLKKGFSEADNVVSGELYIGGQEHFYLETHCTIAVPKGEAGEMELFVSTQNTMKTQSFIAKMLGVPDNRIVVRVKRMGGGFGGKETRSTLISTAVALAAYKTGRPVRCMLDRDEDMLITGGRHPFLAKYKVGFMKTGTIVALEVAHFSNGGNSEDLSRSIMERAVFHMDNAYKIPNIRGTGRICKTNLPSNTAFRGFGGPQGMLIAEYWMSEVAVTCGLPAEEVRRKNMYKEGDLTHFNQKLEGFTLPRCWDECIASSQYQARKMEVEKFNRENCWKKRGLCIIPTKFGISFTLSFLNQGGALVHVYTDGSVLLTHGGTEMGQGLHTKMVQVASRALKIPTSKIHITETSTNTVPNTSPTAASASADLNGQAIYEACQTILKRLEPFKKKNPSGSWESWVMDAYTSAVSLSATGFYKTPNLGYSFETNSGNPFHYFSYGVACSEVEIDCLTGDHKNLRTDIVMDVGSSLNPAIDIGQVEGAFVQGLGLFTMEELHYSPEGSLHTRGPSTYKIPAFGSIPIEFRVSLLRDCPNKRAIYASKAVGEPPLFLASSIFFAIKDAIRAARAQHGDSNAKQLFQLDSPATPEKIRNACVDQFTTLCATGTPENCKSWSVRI

A word on the CL/F: it is the apparent clearance, not corrected for the fraction that reaches the circulation. As usually defined, the AUC(0-t) is the area under the concentration-time curve up to a stated or last time point. Broadly, the Cmax is the maximum level reached in the sampled fluid or tissue. By half-life is commonly meant the time in which the quantity being followed falls by half. One may read the Tmax as the time at which the peak concentration occurs. For `Nc1ccc2c(n1)[nH]c1ccccc12` [AαC, 2-Amino-9H-pyrido[2,3-b]indole], the “AUC 0-24 h in plasma, fold greater in LCN mice than in WT mice” value (“AUC 0-24 h in plasma, fold greater” below) in series [1] (AαC 13.6 mg/kg oral gavage) was “about 20 fold”. Further, in [1] (AαC 13.6 mg/kg oral gavage), the “Cmax in plasma, fold greater in LCN mice than in WT mice” value was found to be 10 fold. Also, the “clearance rate, fold lower in LCN mice than in WT mice” value in series [1] (AαC 13.6 mg/kg oral gavage) was found to be 20 fold. For the same compound, the CL/F in [1] (setting [7]) was 5920 ± 1530 mL/h; in series [1] (setting [8]) it was 884 ± 378^a ml/h; in series [1] (setting [9]) it was 335 ± 146^b ml/h; in [1] (setting [10]), 15300 ± 5690 mL/h; in series [1] (setting [11]), 6900 ± 1850 mL/h. For the same compound, the AUC(0-t) in series [1] (male, C57BL/6, mouse, po, 1.36 mg/kg, AUC0-6h, LCN mice, AαC 1.36 mg/kg oral gavage, mean ± S.D. n=5) came out at 45.2 ± 16.9 ng·h/mL; in [1] (male, C57BL/6, mouse, po, 1.36 mg/kg, AUC0-6h, WT mice, AαC 1.36 mg/kg oral gavage, mean ± S.D. n=5) it was 2.5 ± 1.3 ng·h/mL; in [1] (male, C57BL/6, mouse, po, 13.6 mg/kg, AUC0-24h, IECN mice, AαC 13.6 mg/kg oral gavage, mean ± S.D. n=5) it was 68.4 ± 18.2 ng·h/mL; in series [1] (male, C57BL/6, mouse, po, 13.6 mg/kg, AUC0-24h, LCN mice, AαC 13.6 mg/kg oral gavage, mean ± S.D. n=5), 1360 ± 595 ng·h/mL; in series [1] (male, C57BL/6, mouse, po, 13.6 mg/kg, AUC0-24h, WT mice, AαC 13.6 mg/kg oral gavage, mean ± S.D. n=5), 57.6 ± 14.2 ng·h/mL. For the same compound, the Cmax came out at 21.8 ± 13.6 ng/mL in series [1] (male, C57BL/6, mouse, po, 1.36 mg/kg, Cmax, LCN mice, AαC 1.36 mg/kg oral gavage, mean ± S.D. n=5); 1.4 ± 0.9 ng/mL in [1] (male, C57BL/6, mouse, po, 1.36 mg/kg, Cmax, WT mice, AαC 1.36 mg/kg oral gavage, mean ± S.D. n=5); 25.1 ± 12.4 ng/mL in series [1] (male, C57BL/6, mouse, po, 13.6 mg/kg, Cmax, IECN mice, AαC 13.6 mg/kg oral gavage, mean ± S.D. n=5); 272 ± 85.9 ng/mL in series [1] (male, C57BL/6, mouse, po, 13.6 mg/kg, Cmax, LCN mice, AαC 13.6 mg/kg oral gavage, mean ± S.D. n=5); 26.5 ± 8.6 ng/mL in [1] (male, C57BL/6, mouse, po, 13.6 mg/kg, Cmax, WT mice, AαC 13.6 mg/kg oral gavage, mean ± S.D. n=5). Also, the half-life in series [1] (male, C57BL/6, mouse, po, 1.36 mg/kg, t1/2, LCN mice, AαC 1.36 mg/kg oral gavage, mean ± S.D. n=5) was 1.4 ± 0.5 h; in series [1] (male, C57BL/6, mouse, po, 1.36 mg/kg, t1/2, WT mice, AαC 1.36 mg/kg oral gavage, mean ± S.D. n=5) it was 1.7 ± 0.9 h; in series [1] (male, C57BL/6, mouse, po, 13.6 mg/kg, t1/2, IECN mice, AαC 13.6 mg/kg oral gavage, mean ± S.D. n=5) it was 3.9 ± 2.2 h; in series [1] (male, C57BL/6, mouse, po, 13.6 mg/kg, t1/2, LCN mice, AαC 13.6 mg/kg oral gavage, mean ± S.D. n=5), 2.8 ± 0.3 h; in [1] (male, C57BL/6, mouse, po, 13.6 mg/kg, t1/2, WT mice, AαC 13.6 mg/kg oral gavage, mean ± S.D. n=5), 3 ± 2.4 h. Also, the Tmax in series [1] (male, C57BL/6, mouse, po, 13.6 mg/kg) stood at 1 h. In addition, the “P450 Oxidation” value with Liver microsomal P450 [2] (WT mouse liver microsomes) stood at 103 ± 33 pmol/min/mg protein; in the series with Liver microsomal P450 [3], 820 ± 60 pmol/min/mg protein. For the same compound, the “AαC metabolism, if present (limit of detection by HPLC-UV)” value (on Xanthine Dehydrogenase; with Aldehyde Oxidase; in series [4]) was less than 50 pmol/min/mg protein throughout.

As for `Nc1nc2[nH]c3ccccc3c2cc1OS(=O)(=O)O` [AαC-3-OSO3H, 2-amino-9H-pyrido[2,3-b]indol-3-yl sulfate], in series [1] (AαC 1.36 mg/kg oral gavage), the “Cmax, fold higher in LCN mice than in WT mice” value is roughly 2 fold. In addition, the “AUC 0-24 h in plasma, fold greater” value in series [1] (AαC 13.6 mg/kg oral gavage) is “about 1.6 fold”. In [1] (setting [7]), the AUC0-24h stood at 5310 ± 1650 ng·h/mL, the CL/F is 77.0 ± 20.3^c ml/h, the Cmax stood at 913 ± 248 ng/mL and the Tmax is listed as 1.8 ± 1.2 h. Further, the t1/2 in series [1] (setting [7]) came to 2.8 ± 0.2 h. In series [1] (setting [8]), the AUC0-6h is given as 438 ± 118^a h*ng/ml, the CL/F is listed as 76.0 ± 39.2^b ml/h, the Cmax is given as 177 ± 73.0^a ng/ml and the Tmax is given as 1.0 ± 0 h. Moreover, the t1/2 in series [1] (setting [8]) is listed as 2.5 ± 1.7 h. Further, in series [1] (setting [9]), the AUC0-24h is reported as 6140 ± 1330^b h*ng/ml, the CL/F was 64.3 ± 13.6^a ml/h, the Cmax is 586 ± 128 ng/mL and the Tmax was 3.5 ± 2.3 h. Further, the t1/2 in [1] (setting [9]) stood at 3.1 ± 0.2 h. For the same compound, in series [1] (setting [10]), the AUC0-6h was 165.6 ± 47.6 ng·h/mL, the CL/F is 180 ± 140 mL/h, the Cmax was found to be 74.6 ± 31.5 ng/mL and the Tmax came to 1.0 ± 0 h. For the same compound, the t1/2 in [1] (setting [10]) was 5.9 ± 6.1 h. Further, in series [1] (setting [11]), the AUC0-24h came out at 3700 ± 911 ng·h/mL, the CL/F is 107 ± 27.9 mL/h, the Cmax came to 669 ± 251 ng/mL and the Tmax is reported as 1.8 ± 1.3 h. The t1/2 in series [1] (setting [11]) is 3.4 ± 1.2 h.

As to `O=C(O)[C@H]1O[C@@H](Nc2ccc3c(n2)[nH]c2ccccc23)[C@H](O)[C@@H](O)[C@@H]1O` [AαC-N^2-Glu, N^2-(β-1-glucosidurony1)-2-amino-9H-pyrido[2,3-b]indole], the “Cmax and AUC0-24h, fold higher in LCN than in WT mice” value in [1] (AαC 13.6 mg/kg by gavage, plasma (abstract)) is listed as 4-24 fold. Moreover, in [1] (AαC 13.6 mg/kg oral gavage), the “AUC 0-24 h in plasma, fold greater” value is ~ 6 fold; the “Cmax in plasma, fold greater in LCN mice than in WT mice” value is on record as 4.5 fold; the “clearance rate, fold lower in LCN mice than in WT mice” value came to 6.6 fold. Moreover, in series [1] (setting [7]), the AUC0-24h came to 150 ± 30.0 ng·h/mL, the CL/F was found to be 3180 ± 1031 mL/h, the Cmax was determined as 42.4 ± 15.4 ng/mL and the Tmax was found to be 1.8 ± 1.2 h. Also, the t1/2 in series [1] (setting [7]) is given as 2.5 ± 2.2 h. In [1] (setting [8]), the AUC0-6h is 195 ±78.7^a h*ng/ml, the CL/F is recorded as 207 ± 100^a ml/h, the Cmax is 74.3 ± 48.6^a ng/ml and the t1/2 is recorded as 1.5 ± 0.8 h. In addition, in series [1] (setting [9]), the AUC0-24h is recorded as 803 ± 241^a h*ng/ml, the CL/F is given as 543 ± 148^a ml/h, the Cmax is on record as 186 ± 85.0^b ng/ml and the Tmax came out at 1.0 ± 0 h. The t1/2 in series [1] (setting [9]) was 2.1 ± 0.5 h. For the same compound, in series [1] (setting [10]), the AUC0-6h turned out to be 40.5 ± 16.6 ng·h/mL, the CL/F was 985 ± 372 mL/h, the Cmax stood at 19.2 ± 13.5 ng/mL and the t1/2 is 1.4 ± 0.7 h. In addition, in [1] (setting [11]), the AUC0-24h worked out at 128 ± 26.8 ng·h/mL, the CL/F was determined as 3610 ± 566 mL/h, the Cmax was determined as 40.2 ± 9.6 ng/mL and the Tmax is recorded as 1.0 ± 0 h. The t1/2 in [1] (setting [11]) came to 1.5 ± 0.7 h.

For the compound `COc1ccc2nc3ccc(=O)cc-3oc2c1` [MROD, methoxyresorufin], the “MROD activity, fold decrease in LCN liver microsomes compared to WT microsomes” value in the series with Liver microsomal P450 [2] is “greater than 10 fold”.

Take `Cc1cnc2ccc3c(nc(N)n3C)c2n1` [MeIQx, 2-amino-3,8-dimethylimidaz[4,5-f]quinoxaline]: the “P450 Oxidation” value in the series with Liver microsomal P450 [2] (LCN mouse liver microsomes) is on record as 67 ± 44 pmol/min/mg protein; with Liver microsomal P450 [2] (WT mouse liver microsomes), 404 ± 155 pmol/min/mg protein; with Liver microsomal P450 [3], 1010 ± 155 pmol/min/mg protein. Further, the “levels of metabolism, fold greater than AαC” value with Liver microsomal P450 [2] (WT mouse liver microsomes) fell in the range of 3 to 4 fold.

With `Cn1c(N)nc2ncc(-c3ccccc3)cc21` [PhIP, 2-amino-1-methyl-6-phenylimidazo[4,5-b]pyridine], in the series on Liver microsomal P450 [2] (WT mouse liver microsomes), the “levels of metabolism, fold greater than AαC” value fell in the range of 3 to 4 fold and the “P450 Oxidation” value came to 362 ± 120 pmol/min/mg protein. The “P450 Oxidation” value with Liver microsomal P450 [3] was determined as 1440 ± 280 pmol/min/mg protein. Moreover, the “levels of DNA adducts in Cyp1a2-null vs WT mice” value with DNA [5] is recorded as “ten-fold lower”. Also, in the series with DNA [6], the “PhIP-DNA adduct levels in liver of RCN compared to WT mice” value was “unchanged”.

`Cc1nc2c([nH]1)c(=O)n(C)c(=O)n2Cc1ccco1` [furafylline]: the “inhibition of dG-C8-AαC adduct formation” value with P450 1A2 is on record as “only partially inhibited”.

The values above are taken from publication PMC4703101 (Chemical research in toxicology, 2015).
